Data on 2 compounds can be found in publication PMC12834051, “Improved synthesis and physicochemical characterization of the selective serotonin 2A receptor agonist 25CN-NBOH” (Beilstein Journal of Organic Chemistry, 2026).

A short description of data set [1]: Apparent pKa by spectrophotometric titration (inForm, Sirius). The format is physicochemical. The following applies: for pKa: concentration-based, 30.8 °C, I = 0.172 M. The procedure:
The molar absorption coefficients and apparent pKa values of 1 were determined by spectrophotometry using an inForm instrument from Sirius Analytical (Forest Row, UK). Molar absorption coefficients (absorbance), as a function of the wavelength (185–750 nm) and pH in the interval 2.0–12.0, were determined at 30.8 °C. A stock solution (5.0 mM) of 1·HCl in N-methyl-2-pyrrolidone (NMP) was added to 36 mL of an ionic strength-adjusted buffer solution (I = 0.172 M) containing acetate, phosphate, and sodium chloride while stirring at 300 rpm. The concentration of 1 during measurements ranged from 13–27 µM (three experiments each with three titrations were performed). Potentiometric titrations from high to low pH and low to high pH were performed by addition of 0.50 M HCl and 0.50 M NaOH, respectively, while UV–vis spectra were recorded using the fiber optic probe (10 mm light path) of the inForm diode array spectrometer. The instrument control and data analysis were performed using the inForm software Version 1.1.3.6 (Sirius Analytical, Forest Row, UK).

The nature of data set [2]: Octanol/buffer distribution coefficient (logD). The data set is classed as physicochemical. The following applies: 25 °C. The procedure:
The pH-dependent octanol/buffer distribution coefficients of 1 were determined at 25 ± 0.5 °C using the following buffers: 50 mM sodium citrate (pH 5.00, I = 0.15 M), 67 mM sodium phosphate (pH 7.40, I = 0.18 M), and 50 mM sodium carbonate (pH 9.50, I = 0.15 M). The ionic strength of the buffers was adjusted by adding a calculated amount of potassium chloride. The octanol phases were saturated with the appropriate buffer solution, and vice versa, before the start of the experiment. Solutions of 2, 0.5, and 0.1 mg/mL of the drug in the buffer solutions at pH 5.00, 7.40, and 9.50, respectively, were prepared. The organic phase was hereafter added to the buffer solution in a ratio of 1:9 at pH 5.00 and 7.40 and 1:19 at pH 9.50. The samples were rotated for 24 h in a temperature-controlled incubator at 25 °C. The concentration of 1 in the buffer solution before and after partitioning, ci and cw, respectively, was determined by HPLC, from which distribution coefficients, D, were calculated according to
where Vw and Vo are the volume of the buffer solution and organic phase, respectively. Each experiment was conducted in triplicate.
(§1) Samples from distribution coefficient and stability experiments were analyzed using an Agilent 1260 Infinity system (Agilent Technologies, Santa Clara, CA, USA) equipped with a column oven (Mikrolab Aarhus, Højbjerg, Denmark) and an Agilent 1100 series system (Agilent Technologies), respectively. Reversed-phase chromatography was performed using a Gemini C18 column (150 × 4.60 mm, 5 µm) with a Gemini C18 precolumn (4 × 3.00 mm, Phenomenex, Torrance, CA, USA). Detection was performed at 241 nm, the column temperature was 30 °C, the injection volume was 10 µL, and the flow rate was 1 mL/min. The mobile phase consisted of acetonitrile and 0.1% phosphoric acid in the ratios 35:65 and 25:75, v/v for the distribution coefficient and stability experiments, respectively. The ChemStation software (Version B.04.03, Agilent Technologies) was used for instrument control and data collection.

For data set [3] the following is noted: buffer at pH 7.4; cited from earlier work.
The subject of the next data set is MDCK. The following applies: MDCK assay, cited from earlier work.
The conditions of data set [4]: in vivo, rodents; maximal brain exposure rapidly attained; cited from earlier work.
Data set [5] in a line: Thermodynamic solubility in ultrapure water. The format is physicochemical. The procedure: The solubility of 1·HCl in water was determined at 25 ± 0.5 °C by adding 30 mg to ultrapure water (3 mL) in screw-capped glass vials, giving a suspension where a solid precipitate could be observed at all timepoints. The samples were ultrasonicated for 3 min before being rotated in a temperature-controlled Incubator Hood TH 30 (Edmund Bühler, Bodelshausen, Germany). Sample aliquots of 600 µL were withdrawn after 30, 48, and 74 h and transferred to Eppendorf tubes. The samples were centrifuged at 19,000g for 15 min using a MiniSpin Plus (Eppendorf, Hamburg, Germany) and the supernatant filtered through a 0.45 µm PVDF filter (Ø = 4 mm, Phenomenex) with the first 400 µL being discarded. Samples were diluted with ultrapure water before measurement by a UV spectrophotometry at 241 nm using 10 mm micro quartz cuvettes (Hellma GmbH & Co. KG, Müllheim, Germany) and a Cary 60 UV–vis spectrophotometer (Agilent Technologies). Cary WinUV Simple Reads Application (Version 5.0.0, Agilent Technologies) was used for instrument control and data collection. The experiment was performed in triplicate.

Data set [6] in a line: Stability in solution (HPLC peak areas). The data set is classed as physicochemical. The protocol:
The stability of 1 was determined in 67 mM sodium phosphate buffer (pH 7.40, I = 0.18 M) and water at 25 ± 0.5 °C. The solutions comprising 0.2 mg/mL of 1·HCl were kept in a temperature-controlled incubator, and samples were measured by HPLC immediately after sample preparation as well as after one and four weeks for the experiments in phosphate buffer and after four weeks for experiments in ultrapure water. The stability of 1 was assessed based on peak areas. The experiment was performed in triplicate.
as §1

[7] abbreviates: pH 7.4, calculated species distribution.

The structures appear in SMILES notation. Values after ≈ are worked out from the molar mass of the structure shown. Values joined by “and” are separate entries in the source; they are usually repeats but may differ in a detail not shown here. Equal entries are not always repeated. “Also recorded” adds a separate entry of the source. Structures can show the parent of a compound that is named as a salt. Where two headings read alike, the source gives them in different places.

As to `COc1cc(CCNCc2ccccc2O)c(OC)cc1C#N` [Compound 1, 25CN-NBOH], the pKa in data set [1] (read-out: apparent pKa (phenol)) was found to be 10.7 ± 0.1; in data set [1] (read-out: apparent pKa (protonated amine)) it was 8.4 ± 0.1. Also, the “fraction present in the protonated form” value was more than 99% in data set [1] (pH 6.24, saturated solution of 1·HCl in ultrapure water) and “approximately 90%” in data set [1] (setting [7]). The “fraction present as the neutral species” value was approximately 10% in data set [1] (setting [7]) and 87% in data set [1] (pH 9.5, calculated species distribution). The logD at 24 h was -0.76 ± 0.01 in data set [2] (pH 5.00, octanol/50 mM sodium citrate); 1.59 ± 0.02 in data set [2] (pH 7.4, pH 7.40, octanol/67 mM sodium phosphate); 2.58 ± 0.01 in data set [2] (pH 9.5, pH 9.50, octanol/50 mM sodium carbonate). In addition, the solubility in buffer in data set [3] was 400 µg/mL (≈ 1280 µM). Besides, the “permeability apical–basal” value in the data set on MDCK (apical–basal) is 29 ×10⁻⁶ cm/s. For the same compound, the “permeability basal–apical” value with MDCK (basal–apical) was 20 ×10⁻⁶ cm/s. In addition, the BBB permeability entry in data set [4] is listed as “excellent BBB permeability”.

Consider `COc1cc(CCNCc2ccccc2O)c(OC)cc1C#N` [1·HCl, 25CN-NBOH·HCl], for which, in data set [5] (saturated solution of 1·HCl in ultrapure water), the “pH of saturated solution in water” value was 6.24 ± 0.01 and 6.24. The solubility (thermodynamic) in data set [5] (ultrapure water, 25 °C, pH 6.24, water, thermodynamic from solid) was determined as 8500 ± 300 µg/mL. In addition, the kinetic solubility result in data set [5] (water, preparing 5 mg/mL requires shaking for several minutes) is “low”. Also, in data set [6] (phosphate buffer pH 7.4, 25 °C, 4 weeks), the “stability in solution in phosphate buffer” value is reported as “stable”. The stability in water result in data set [6] (water, 25 °C, 4 weeks (1 month)) is recorded as “could not detect additional species; also recorded: stable”.
